“And” between values parts separate entries of the source, which are not always exact repeats. Equal entries are not always repeated.
Tests used:
[1] = test system: HDACs (HeLa cell nuclear extracts); assay: HDAC enzymatic activity inhibition assay (Biomol Color de Lys system); format: biochemical; settings: class symbols
Method: HDAC inhibitory activity was assessed using the Biomol Color de Lys system (AK-500, Biomol, Plymouth Meeting, Pa.). Briefly, HeLa cell nuclear extracts were used as a source of HDACs. Different concentrations of test compounds were serially diluted in dimethylsulfoxide (DMSO) and added to HeLa cell nuclear extracts in the presence of a colorimetric artificial substrate. […] Reactions were carried out at room temperature (25° C.) for 1 hour before addition of developer for termination. […] Data were analyzed using GraphPad Prism (v4.0a) with a sigmoidal dose response curve fitting for IC50 calculation.

[2] = test system: Hedgehog pathway signaling (Gli-Luc response, OCT-SHH activated 10 Tl/2 (s12) cells); assay: Hedgehog signalling inhibition, Gli-Luc reporter assay (Hh Reporter assay); format: cell-based
Method: Example 17: An In Vitro Assay which Determines the Ability of a Test Compound to Inhibit Hedgehog Signalling
Compounds to be tested were dissolved in DMSO to a concentration of 10 mM, and stored at −20° C. To activate the Hedgehog pathway in the assay cells, an octylated (lipid-modified) form of the N-terminal fragment of the Sonic Hedgehog protein (OCT-SHH) was used. This N-terminal SHH fragment is produced bacterially. See, for example, Taylor F R, et al., Biochemistry, 2001, 40: 4359-71.
Compounds were tested in the“Gli-Luc” assay below, using the cell line 10 Tl/2 (s12), wherein the cells contain a Hedgehog-responsive reporter construct utilizing Luciferase as the reporter gene. In this way, Hedgehog pathway signaling activity is measured via the Gli-Luc response.
10 Tl/2 (s12) cells were plated in a 96-well micro-titer plate (MTP) at 20,000 cells/well in full medium [DMEM with 10% FBS]. Then plates were placed in the incubator for incubation overnight (0/N), at 37° C. and 5% CO2. After 24 h, the medium was replaced with Luciferase-assay medium (DMEM with 0.5% FBS). Test compounds were thawed and diluted in assay medium at 3:1000 (about 300-fold) resulting in a starting concentration of about 0.0003 uM to 30 uM. Subsequently, 150 ul of each sample was added to the first wells (in triplicate). The MTP samples were then diluted at 3-fold dilutions to a total of seven wells, ultimately resulting in a regiment of seven dilutions in triplicate, for each compound. Next, the protein ligand OCT-SHH was diluted in Luciferase-assay medium and added to each well at a final concentration of 0.3 μg/ml. Plates were then returned to the incubator for further incubation O/N, at 37° C. and 5% CO2. After about 24 h, plates were removed from the incubator and the medium was aspirated/discarded.
Wells were washed once with assay buffer [PBS+1 mM Mg^2+ and 1 mM Ca^2+]. Then 50 μl of assay buffer was added to each well. The Luciferase assay reagent was prepared as described by the vendor (LucLite kit from Packard), and 50 μl was added to each well. Plates were incubated at room temperature (RT) for about 30 minutes after which the signals were read, again at RT, on a Topcount (Packard). […]

[3] = S12, Gli-Luc reporter, class symbols

| SMILES | IC50 [1] [nM] | IC50 [2, 3] [nM] | melting point [°C] | IC50 ([2]; Gli-Luc reporter, numeric values for reference compounds) | IC50 ([2]; S12, Gli-Luc reporter, numeric values for reference compounds) [nM] |
| --- | --- | --- | --- | --- | --- |
| CS(=O)(=O)c1ccc(C(=O)Nc2ccc(Cl)c(-c3ccc(/C=C/C(=O)NO)cn3)c2)c(Cl)c1 [Compound 1, (E)-2-chloro-N-(4-chloro-3-(5-(3-(hydroxyamino)-3-oxoprop-1-enyl)pyridin-2-yl)phenyl)-4-(methylsulfonyl)benzamide] | 100 to 1000 | 100 to 1000 |  |  |  |
| CS(=O)(=O)c1ccc(C(=O)Nc2ccc(Cl)c(-c3ccc(C(=O)NO)cn3)c2)c(Cl)c1 [Compound 5, 6-(2-Chloro-5-(2-chloro-4-(methylsulfonyl)benzamido)phenyl)-N-hydroxynicotinamide] | 100 to 1000 | 100 to 1000 |  |  |  |
| CS(=O)(=O)c1ccc(C(=O)Nc2ccc(Cl)c(-c3ncc(C(=O)NO)cn3)c2)c(Cl)c1 [Compound 7, 2-[2-Chloro-5-(2-chloro-4-methanesulfonyl-benzoylamino)-phenyl]-pyrimidine-5-carboxylic acid hydroxyamide] | 100 to 1000 | > 1000 |  |  |  |
| CS(=O)(=O)c1ccc(C(=O)Nc2ccc(Cl)c(-c3ccc(OCCCCCCC(=O)NO)cn3)c2)c(Cl)c1 [Compound 23, 2-Chloro-N-{4-chloro-3-[5-(6-hydroxycarbamoyl-hexyloxy)-pyridin-2-yl]-phenyl}-4-methanesulfonyl-benzamide] | 10 to 100 | 100 to 1000 | 140 to 145 |  |  |
| O=C(CCCCCCNS(=O)(=O)c1ccc(C(=O)Nc2ccc(Cl)c(-c3ccccn3)c2)c(Cl)c1)NO [Compound 59, 2-Chloro-N-(4-chloro-3-(pyridin-2-yl)phenyl)-4-(N-(7-(hydroxyamino)-7-oxoheptyl)sulfamoyl)benzamide] | 100 to 1000 | 10 to 100 |  |  |  |
| O=C(NO)c1cnc(N2CCC(CNS(=O)(=O)c3ccc(C(=O)Nc4ccc(Cl)c(-c5ccccn5)c4)c(Cl)c3)CC2)nc1 [Compound 90, 2-(4-((3-Chloro-4-(4-chloro-3-(pyridin-2-yl)phenylcarbamoyl)phenylsulfonamido)methyl)piperidin-1-yl)-N-hydroxypyrimidine-5-carboxamide] | 10 to 100 | 1 to 10 | 172 to 173 |  |  |
| Cc1nc(NCC2CCN(c3ncc(C(=O)NO)cn3)CC2)ccc1C(=O)Nc1ccc(Cl)c(-c2nc3ccccc3[nH]2)c1 [Compound 91, 2-(4-((5-(3-(1H-Benzo[d]imidazol-2-yl)-4-chlorophenylcarbamoyl)-6-methylpyridin-2-ylamino)methyl)piperidin-1-yl)-N-hydroxypyrimidine-5-carboxamide] | 10 to 100 | 10 to 100 | 194 to 196 |  |  |
| CN(C)c1ccc2[nH]c(-c3cc(NC(=O)c4cccc(OCCCCCCC(=O)NO)c4)ccc3Cl)nc2c1 [Compound 111, N-(4-Chloro-3-(5-(dimethylamino)-1H-benzo[d]imidazol-2-yl)phenyl)-3-(7-(hydroxyamino)-7-oxoheptyloxy)benzamide] | 10 to 100 | 100 to 1000 |  |  |  |
| O=C(/C=C/c1cccc(NS(=O)(=O)c2ccc(C(=O)Nc3ccc(Cl)c(-c4ccccn4)c3)c(Cl)c2)c1)NO [Compound 254, (E)-2-Chloro-N-(4-chloro-3-(pyridin-2-yl)phenyl)-4-(N-(3-(3-(hydroxyamino)-3-oxoprop-1-enyl)phenyl)sulfamoyl)benzamide] | 100 to 1000 | 10 to 100 |  |  |  |
| COc1cc(CNc2ncc(C(=O)NO)cn2)cc(C(=O)Nc2ccc(Cl)c(-c3nc4cc(N(C)C)ccc4[nH]3)c2)c1 [Compound 258, 2-(3-(4-Chloro-3-(5-(dimethylamino)-1H-benzo[d]imidazol-2-yl)phenylcarbamoyl)-5-methoxybenzylamino)-N-hydroxypyrimidine-5-carboxamide] | 10 to 100 | 10 to 100 | 158 to 159 |  |  |
| COc1cc(CN(C)c2ncc(C(=O)NO)cn2)cc(C(=O)Nc2ccc(Cl)c(-c3nc4cc(N(C)C)ccc4[nH]3)c2)c1 [Compound 259, 2-((3-(4-Chloro-3-(5-(dimethylamino)-1H-benzo[d]imidazol-2-yl)phenylcarbamoyl)-5-methoxybenzyl)(methyl)amino)-N-hydroxypyrimidine-5-carboxamide] | 10 to 100 | 10 to 100 |  |  |  |
| CN(Cc1ccc(C(=O)Nc2ccc(Cl)c(-c3ccccn3)c2)c(Cl)c1)c1ncc(C(=O)NO)cn1 [Compound 263, 2-((3-Chloro-4-(4-chloro-3-(pyridin-2-yl)phenylcarbamoyl)benzyl) (methyl)amino)-N-hydroxypyrimidine-5-carboxamide] | 10 to 100 | 100 to 1000 |  |  |  |
| O=C(NO)c1cnc(NS(=O)(=O)c2ccc(C(=O)Nc3ccc(Cl)c(-c4ccccn4)c3)c(Cl)c2)nc1 [Compound 265, 2-(3-Chloro-4-(4-chloro-3-(pyridin-2-yl)phenylcarbamoyl)phenylsulfonamido)-N-hydroxypyrimidine-5-carboxamide] | > 1000 |  |  |  |  |
| O=C(NO)c1ccc(OCCNS(=O)(=O)c2ccc(C(=O)Nc3ccc(Cl)c(-c4ccccn4)c3)c(Cl)c2)cc1 [Compound 266, 2-Chloro-N-(4-chloro-3-(pyridin-2-yl)phenyl)-4-(N-(2-(4-(hydroxycarbamoyl)phenoxy)ethyl)sulfamoyl)benzamide] | 100 to 1000 | 1 to 10 | 138 to 139 |  |  |
| COc1cc(OC)cc(C(=O)Nc2ccc(Cl)c(-c3nc4ccc(N(C)C)cc4[nH]3)c2)c1 [Compound A, reference compound] |  |  |  | 24 nM and 13.1 nM | 17 |

— patent US10214514B2, “Hedgehog antagonists having zinc binding moieties” (Curis, Inc., priority 2011, dated 2019)
